From the Kinase Knowledgebase extract (Sharma et al. 2016)

Biological target: MAPK14 (UniProt Q16539)
Test: p38 Inhibition Assay (in Vitro)

Sequence of MAPK14 (Q16539 whole entry, looked up): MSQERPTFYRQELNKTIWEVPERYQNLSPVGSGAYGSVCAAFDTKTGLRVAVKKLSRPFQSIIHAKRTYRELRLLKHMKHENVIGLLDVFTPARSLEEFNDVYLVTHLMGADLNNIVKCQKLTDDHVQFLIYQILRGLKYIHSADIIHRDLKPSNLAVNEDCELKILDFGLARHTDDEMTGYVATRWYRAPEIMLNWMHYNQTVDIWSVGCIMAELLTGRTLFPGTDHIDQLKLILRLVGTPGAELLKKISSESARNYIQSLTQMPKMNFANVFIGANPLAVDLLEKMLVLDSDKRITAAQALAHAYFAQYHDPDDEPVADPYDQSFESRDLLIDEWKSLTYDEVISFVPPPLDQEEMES

Compound | IC50 [µM]
O=C(NCc1ccc(S(=O)(=O)N2CCC(Nc3ccc(Cl)cc3)CC2)s1)c1ccc(Cl)cc1 | > 30
O=C(NCc1ccc(S(=O)(=O)N2CCCN(C(=O)Cc3ccccc3)CC2)s1)c1ccc(Cl)cc1 | > 30
O=C(NCc1ccc(S(=O)(=O)N2CCC(n3cnc4ccccc43)CC2)s1)c1ccc(Cl)cc1 | > 30
COC(=O)c1cccc(NC2CCN(S(=O)(=O)c3ccc(CNC(=O)c4ccc([N+](=O)[O-])cc4)s3)CC2)c1 | > 30
O=C(NCc1ccc(S(=O)(=O)N2CCC(n3nnc4ccccc43)CC2)s1)c1ccccc1O | > 30
O=C(NCc1ccc(S(=O)(=O)N2CCC(C(=O)c3ccc(F)cc3F)CC2)s1)c1ccc(Cl)cc1 | > 30
COc1cccc(C(=O)NCc2ccc(S(=O)(=O)N3CCC(Nc4ccccc4[N+](=O)[O-])CC3)s2)c1 | > 30
COc1cccc(NC2CCN(S(=O)(=O)c3ccc(CNC(=O)c4ccc([N+](=O)[O-])cc4)s3)CC2)c1 | > 30
CCCc1cccc(NC2CCN(S(=O)(=O)c3ccc(CNC(=O)c4ccc(Cl)cc4)s3)CC2)c1 | > 30
O=C(NCc1ccc(S(=O)(=O)N2CCN(C(=O)c3cccc4ccccc34)CC2)s1)c1ccc(Cl)cc1 | > 30
O=C(NCc1ccc(S(=O)(=O)N2CCC(n3nnc4ccccc43)CC2)s1)c1ccc(Cl)cc1 | > 30
O=C(NCc1ccc(S(=O)(=O)N2CCC(Nc3ccccc3)CC2)s1)c1ccc(Cl)cc1 | > 30
O=C(NCc1ccc(S(=O)(=O)N2CCC(Nc3cccc(S(=O)(=O)CCO)c3)CC2)s1)c1ccc(Cl)cc1 | > 30
NS(=O)(=O)c1cccc(NC2CCN(S(=O)(=O)c3ccc(CNC(=O)c4ccc(Cl)cc4)s3)CC2)c1 | > 30
